# Data from US10344287B2, “Recombinant microorganism producing quinolinic acid and method for producing quinolinic acid using same” (priority 2014, dated 2019).
# How the values were obtained:
# Format in all cases: cell-based, E. coli
# [1] = test system: W3110-ΔnadC with pPro-nadB_pCJ1-nadA and pCL1920; assay: Sensitivity to quinolinic acid, control strain; details: 13 g/L quinolinic acid in medium
# Experimental: (§1) First, to attenuate growth and development in the production strains, it was confirmed whether the addition of 13 g/L of quinolinic acid, in which KOH was titrated to a 7.0 pH, had influence or not. That is, a single colony of the strain producing quinolinic acid was inoculated in 25 mL of a LB+1% glucose broth (10 g/L of yeast extract, 5 g/L of NaCl, 10 g/L of tryptone, […] of kanamycin, and 10 g/L of glucose) by 1 platinum loop, and then, incubated with 250 rpm at 33° C. for 16 to 24 hours. Then, the OD600, the glucose consumption, and the residual quinolinic acid of the strain were measured.
# (§2) To figure out whether the KefA membrane protein influenced the introduction of quinolinic acid, under the same method as Example 2-4(1), the kefA gene-deficient strain and the kefA gene-enhanced strain were subjected to evaluation of sensitivity to quinolinic acid.
# [2] = test system: W3110-ΔnadCΔkefA with pPro-nadB_pCJ1-nadA and pCL1920; assay: Sensitivity to quinolinic acid, kefA-deficient strain
# Experimental: as §1, §2
# [3] = test system: W3110-ΔnadC with pPro-nadB_pCJ1-nadA; assay: Sensitivity to quinolinic acid of strain producing quinolinic acid (growth in LB+1% glucose broth)
# Experimental: as §1
# [4] = test system: MG1655-ΔnadC with pPro-nadB_pCJ1-nadA; assay: as above; details: 33° C., 16 to 24 hours
# Experimental: as §1
# [5] = test system: W3110-ΔnadC with pPro-nadB_pCJ1-nadA and pCL_PrhtB-kefA; assay: Sensitivity to quinolinic acid, kefA-enhanced strain
# Experimental: as §1
# The kefA gene obtained through PCR procedures was recovered through agarose gel elution, and then, was treated with restriction enzymes EcoRV and HindIII. Afterwards, the kefA gene was subjected to ligation into a pCL1920_pRhtB vector treated with restriction enzymes EcoRV and HindIII, leading to the expression of the kefA gene linked to a pRhtB promoter. The vector prepared therefrom was named a pCL_pRhtB-kefA vector.
# as §2
# [6] = 13 g/L quinolinic acid in medium
smiles,measurement,setting,value
"O=C(O)c1cccnc1C(=O)O [quinolinic acid, 2,3-pyridine-dicarboxylic acid]",Glucose consumption,[1],6.2 g/L
same,OD600,[1],5.0
same,Glucose consumption,[2]; [6],8.0 g/L
same,OD600,[2]; [6],8.2
same,growth and development and glucose consumption speed compared to control strain,"[2]; quinolinic acid additionally added to the medium, kefA-deficient strain versus control strain",up to 110%
same,OD600,"[3]; 13 g/L of quinolinic acid in medium (pH 7.0 with KOH), 33° C., 16 to 24 hours",4.9
same,Glucose consumption,"[3]; 13 g/L of quinolinic acid in medium, 33° C., 16 to 24 hours",6.0 g/L
same,"growth and development and glucose-consumption speed, decreased to","[3]; quinolinic acid additionally added to the medium (13 g/L) versus 0 g/L, strains of Table 5",40%
same,OD600,[4]; 13 g/L of quinolinic acid in medium (pH 7.0 with KOH),4.5
same,Glucose consumption,[4]; 13 g/L of quinolinic acid in medium,6.0 g/L
same,Glucose consumption,[5]; [6],3.2 g/L
same,OD600,[5]; [6],2.1
same,growth and development and glucose consumption speed compared to control strain,"[5]; quinolinic acid additionally added to the medium, kefA-enhanced strain versus control strain",50%
